These results are taken from US9763961B2, “Compositions that modulate the activity of estrogen receptors and estrogen-related receptors and methods for use” (CITY OF HOPE, priority 2005, dated 2017).

For assay [1], the target named is T1, ERRβ (Homo sapiens, UniProt O95718).
T1 construct: expressed in transfected cells; host or cells: HeLa
T1 sequence (O95718 1-433): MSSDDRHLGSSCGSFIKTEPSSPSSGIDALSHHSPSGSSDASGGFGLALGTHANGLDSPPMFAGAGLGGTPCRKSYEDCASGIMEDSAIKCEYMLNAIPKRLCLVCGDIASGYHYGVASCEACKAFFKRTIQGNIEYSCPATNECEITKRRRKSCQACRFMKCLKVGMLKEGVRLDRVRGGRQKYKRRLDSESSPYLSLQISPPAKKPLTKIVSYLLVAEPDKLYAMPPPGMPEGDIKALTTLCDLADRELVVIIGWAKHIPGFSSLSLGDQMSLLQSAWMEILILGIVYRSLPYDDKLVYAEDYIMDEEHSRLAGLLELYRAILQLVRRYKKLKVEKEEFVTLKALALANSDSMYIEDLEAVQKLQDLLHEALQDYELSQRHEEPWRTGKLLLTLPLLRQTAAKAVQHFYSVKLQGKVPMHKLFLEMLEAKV
Briefly: Relative luciferase activity for ERRβ (FIG. 8). The class given is cell-based.

For another assay, the target named is T2, ERRα (Homo sapiens, UniProt P11474).
T2 sequence (P11474 1-423): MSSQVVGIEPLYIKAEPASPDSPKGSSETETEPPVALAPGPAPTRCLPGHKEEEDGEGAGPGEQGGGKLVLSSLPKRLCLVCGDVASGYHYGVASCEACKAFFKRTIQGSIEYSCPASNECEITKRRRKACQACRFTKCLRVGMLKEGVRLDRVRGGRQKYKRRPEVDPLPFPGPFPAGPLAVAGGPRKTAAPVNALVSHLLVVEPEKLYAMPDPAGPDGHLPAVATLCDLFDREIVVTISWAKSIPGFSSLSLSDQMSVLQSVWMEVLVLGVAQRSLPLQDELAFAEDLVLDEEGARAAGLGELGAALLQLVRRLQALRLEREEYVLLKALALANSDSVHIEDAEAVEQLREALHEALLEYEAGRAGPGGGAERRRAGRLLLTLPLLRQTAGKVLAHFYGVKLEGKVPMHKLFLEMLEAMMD
Briefly: Relative luciferase activity for ERRα (FIG. 8). Also on record: endogenous in cells; host or cells: SK-BR-3. The format is cell-based.

The target of assay [2] is T3, ERRγ (Homo sapiens, UniProt P62508).
T3 construct: expressed in transfected cells; host or cells: HeLa
T3 sequence (P62508 1-458): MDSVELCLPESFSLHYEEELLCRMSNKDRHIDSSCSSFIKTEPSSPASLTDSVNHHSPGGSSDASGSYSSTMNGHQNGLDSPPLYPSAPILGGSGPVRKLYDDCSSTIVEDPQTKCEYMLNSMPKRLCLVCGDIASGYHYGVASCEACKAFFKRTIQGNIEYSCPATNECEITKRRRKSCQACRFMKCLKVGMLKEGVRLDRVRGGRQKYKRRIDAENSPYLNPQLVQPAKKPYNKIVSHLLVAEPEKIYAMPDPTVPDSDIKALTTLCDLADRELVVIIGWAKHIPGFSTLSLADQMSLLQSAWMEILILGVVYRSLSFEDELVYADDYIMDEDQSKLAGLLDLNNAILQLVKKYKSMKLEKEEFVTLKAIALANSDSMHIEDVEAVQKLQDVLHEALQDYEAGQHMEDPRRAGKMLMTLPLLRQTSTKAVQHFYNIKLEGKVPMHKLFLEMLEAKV
Briefly: Relative luciferase activity for ERRγ (FIG. 8). The format is cell-based.

For the next assay, the system named is ER. Conditions: cited from earlier work.
The next assay has as its target T4, ERα (Homo sapiens, UniProt P03372).
T4 construct: expressed in transfected cells; host or cells: HeLa
T4 sequence (P03372 1-595): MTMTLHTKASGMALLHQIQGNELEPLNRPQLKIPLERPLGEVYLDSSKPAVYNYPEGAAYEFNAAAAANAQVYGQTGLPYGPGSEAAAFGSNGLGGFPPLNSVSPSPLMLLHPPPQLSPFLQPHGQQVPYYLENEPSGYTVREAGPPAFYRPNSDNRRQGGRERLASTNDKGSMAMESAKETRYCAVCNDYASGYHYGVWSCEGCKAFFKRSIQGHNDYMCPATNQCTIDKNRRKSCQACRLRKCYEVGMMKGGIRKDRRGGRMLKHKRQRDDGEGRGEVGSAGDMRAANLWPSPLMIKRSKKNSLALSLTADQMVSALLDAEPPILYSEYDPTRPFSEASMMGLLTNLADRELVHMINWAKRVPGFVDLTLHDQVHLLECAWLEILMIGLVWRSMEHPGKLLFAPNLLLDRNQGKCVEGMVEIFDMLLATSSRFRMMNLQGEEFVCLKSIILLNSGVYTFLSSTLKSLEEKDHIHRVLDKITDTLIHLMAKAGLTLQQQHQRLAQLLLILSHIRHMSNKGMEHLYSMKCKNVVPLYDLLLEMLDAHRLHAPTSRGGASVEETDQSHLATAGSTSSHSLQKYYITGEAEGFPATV
Briefly: Transient transfection luciferase assay with pSG5-ERa and ERE-SV40 reporter in HeLa cells, with 100 pM estradiol. The format is cell-based.

For assay [3], the target named is T5, GAL4-human ERRα LBD fusion (Homo sapiens, UniProt P11474).
T5 construct: GAL4-human ERRα LBD fusion expression plasmid; expressed in transfected cells; host or cells: HeLa
T5 sequence (P11474 193-421 limits assumed): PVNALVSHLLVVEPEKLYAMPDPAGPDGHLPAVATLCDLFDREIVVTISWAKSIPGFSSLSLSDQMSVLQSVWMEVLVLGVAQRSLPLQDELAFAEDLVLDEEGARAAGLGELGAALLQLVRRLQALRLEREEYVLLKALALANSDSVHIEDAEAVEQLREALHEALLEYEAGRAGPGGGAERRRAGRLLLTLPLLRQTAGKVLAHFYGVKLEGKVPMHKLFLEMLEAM
Briefly: Transient transfection luciferase assay, GAL4-human ERRα LBD fusion with Gal4-TK-Luc reporter in HeLa cells. The class given is cell-based. As to conditions: pM-ERRα LBD, 24 h, mean ± SD. Here is the method: Referring to FIG. 2, we have also prepared GAL4-ERRα expression plasmid and luciferase reporter plasmids with GAL4 response element. This is a more sensitive assay method than that using pSG5-ERRα and ERE luciferase reporter plasmids.
(§1) To evaluate the functional significance of the interaction of chalcones with ERRα, we incubated these compounds with HeLa cells which were transiently transfected with human ERRα expression plasmid and a luciferase reporter plasmid containing SF1 binding site. […] In order to confirm the results above, HeLa cells were transiently transfected with GAL4-human ERRα LBD fusion expression plasmid and a luciferase reporter plasmid containing GAL4 binding site. […] Most of the compounds, however, have similar IC50 value, and have a similar potency.
Referring to FIG. 2, HeLa cells were cotransfected with pM-ERRα LBD (0.5 μg) and luciferase reporter plasmid containing GAL4 binding site and TK promoter (0.25 μg). The transfected cells were incubated with Compound No. 1-9 for 24 h. After cells were washed with 1× PBS, luciferase activity was measured. Values represent the mean±SD.

Assay [4] concerns the target T1, ERRβ. Briefly: Transient transfection luciferase assay with pSG5-ERRb and SF1-SV40 reporter in HeLa cells. The format is cell-based.
A further assay addresses T6, ERβ (Homo sapiens, UniProt Q92731).
T6 construct: expressed in transfected cells; host or cells: HeLa
Briefly: Transient transfection luciferase assay with pCI-ERb and ERE-SV40 reporter in HeLa cells, with 100 pM estradiol. The class given is cell-based.

Assay [5] addresses T3, ERRγ. Briefly: Transient transfection luciferase assay with pSG5-ERRg and SF1-SV40 reporter in HeLa cells. The class given is cell-based.
In the next assay the target is T7, human ERRα-1 (Homo sapiens, UniProt P11474).
T7 construct: expressed in transfected cells; host or cells: HeLa
T7 sequence (P11474 1-423): T2 sequence (P11474 1-423)
Briefly: Transient transfection luciferase assay, full length human ERRα with SF1-SV40-Luc reporter in HeLa cells. Conditions: HeLa cells. The class given is cell-based. Here is the method:
HeLa cells were cultured in MEM Earle's salts medium supplemented with 5% charcoal/dextran-treated fetal bovine serum. Cells were then divided and cultured in 6-well plates until 80% confluence was achieved. The cells were next transfected with 4 μg Lipofectin. An equal amount of total DNA was used in all transfections by including appropriate amounts of the empty vector, pSG5, in addition to specific amounts of pSG5-ERRα and luciferase reporter plasmids (ERRE (ERRα recognizes an ERE half site)-containing reporter and aromatase promoter I.3-containing reporter). Following an overnight incubation, the medium containing Lipofectin and DNA was removed, and the cells cultured in a growth medium containing 5% charcoal/dextran-treated fetal bovine serum with or without ligands. After a 24-hour incubation, the cells was harvested from the plates by scraping, and the luciferase activities in the cell lysates (with the same amounts of protein) was measured according to the manufacturer's instructions (Promega). All experiments were performed in triplicate.
as §1
Referring to FIG. 1, HeLa cells were cotransfected with pSG5-ERRα (0.5 μg) and luciferase reporter plasmid containing SF1 binding site and SV40 promoter (0.25 μg). The transfected cells were incubated with Compound No. 1-9 for 24 h. After cells were washed with 1× PBS, luciferase activity was measured. Values represent the mean±SD.

Setting [6] is: HeLa cells, in the presence of 100 pM of estradiol, 24 h.
The mark [7] stands for this setting: HeLa cells, 24 h, average of at least two experiments.

Each structure is given as a SMILES string.

T6 sequence (Q92731 whole entry, species assumed): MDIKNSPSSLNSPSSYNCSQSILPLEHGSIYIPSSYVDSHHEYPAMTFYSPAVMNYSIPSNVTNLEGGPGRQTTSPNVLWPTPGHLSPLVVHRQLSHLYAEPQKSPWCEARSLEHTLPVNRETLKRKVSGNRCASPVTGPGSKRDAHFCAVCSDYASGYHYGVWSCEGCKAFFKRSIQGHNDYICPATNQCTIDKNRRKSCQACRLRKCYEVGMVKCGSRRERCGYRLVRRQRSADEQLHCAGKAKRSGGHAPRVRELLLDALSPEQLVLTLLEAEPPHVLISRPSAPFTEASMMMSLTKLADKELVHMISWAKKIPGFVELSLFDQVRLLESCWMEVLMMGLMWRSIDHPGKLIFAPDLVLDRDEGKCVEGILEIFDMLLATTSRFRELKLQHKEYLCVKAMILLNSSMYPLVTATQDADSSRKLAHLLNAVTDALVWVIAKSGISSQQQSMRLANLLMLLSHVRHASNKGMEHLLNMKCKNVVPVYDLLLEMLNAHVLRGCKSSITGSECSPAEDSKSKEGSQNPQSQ

As for `O=C(/C=C/c1ccc(O)cc1)c1ccc(O)cc1O` [Compound No. 3-15, 4,2′,4′-trihydroxychalcone], the “Agonist activity on ERRβ” value on ERRβ [1] is given as “agonist of all three forms of ERRs”. Besides, at ERRα, the “Agonist activity on ERRα” value is given as “agonist of all three forms of ERRs”. Also, the “Agonist activity on ERRγ” value on ERRγ [2] is given as “agonist of all three forms of ERRs”.

Turning to `CC/C(=C(/c1ccc(O)cc1)c1ccc(OCCN(C)C)cc1)c1ccccc1` [E-4-OHT], the “Affinity for ER relative to Z-4-OHT” value in the assay on ER is recorded as “about 5%”.

In general, IC50 refers to the point on the concentration scale where inhibition reaches its midpoint. On to `COc1ccc(C(=O)/C=C/c2ccccc2OC)c(O)c1` [7-2], for which the concentration for half-maximal inhibition (IC50) was 7.8 µM at ERα (setting [6]); 2e+06 ± 700000 pM in assay [3]; 6.7 µM against ERRβ [4] (setting [7]); 15 µM on ERβ (setting [6]); 8 µM against ERRγ [5] (setting [7]); 8.3 ± 0.4 µM against human ERRα-1 (pSG5-ERRα, 24 h, mean ± SD). Moreover, the “Antagonistic properties on ERa (in words)” value at ERα (transient transfection) is “showed antagonistic properties”. For the same compound, the “Antagonistic properties on ERRb (in words)” value at ERRβ [4] (transient transfection) is listed as “showed antagonistic properties”. The “Antagonistic properties on ERb (in words)” value at ERβ (transient transfection) is listed as “showed antagonistic properties”. Moreover, the “Antagonistic properties on ERRg (in words)” value on ERRγ [5] (transient transfection) is listed as “showed antagonistic properties”. At human ERRα-1 (SF1 binding site reporter, FIG. 1), the “Antagonism of constitutive activity of ERRα (in words)” value was “antagonists of ERRα”.
